The source made the active and inactive calls.
The molecules below were run against T1, NAD-dependent protein deacetylase sirtuin-1 (Homo sapiens, UniProt Q96EB6) (assay: Inhibition of human recombinant SIRT1 using Fluor-de-Lys as substrate incubated for 60 mins prior to substrate addition measured after 60 mins by fluorometric analysis). Settings: not given.
T1 sequence (Q96EB6 whole entry): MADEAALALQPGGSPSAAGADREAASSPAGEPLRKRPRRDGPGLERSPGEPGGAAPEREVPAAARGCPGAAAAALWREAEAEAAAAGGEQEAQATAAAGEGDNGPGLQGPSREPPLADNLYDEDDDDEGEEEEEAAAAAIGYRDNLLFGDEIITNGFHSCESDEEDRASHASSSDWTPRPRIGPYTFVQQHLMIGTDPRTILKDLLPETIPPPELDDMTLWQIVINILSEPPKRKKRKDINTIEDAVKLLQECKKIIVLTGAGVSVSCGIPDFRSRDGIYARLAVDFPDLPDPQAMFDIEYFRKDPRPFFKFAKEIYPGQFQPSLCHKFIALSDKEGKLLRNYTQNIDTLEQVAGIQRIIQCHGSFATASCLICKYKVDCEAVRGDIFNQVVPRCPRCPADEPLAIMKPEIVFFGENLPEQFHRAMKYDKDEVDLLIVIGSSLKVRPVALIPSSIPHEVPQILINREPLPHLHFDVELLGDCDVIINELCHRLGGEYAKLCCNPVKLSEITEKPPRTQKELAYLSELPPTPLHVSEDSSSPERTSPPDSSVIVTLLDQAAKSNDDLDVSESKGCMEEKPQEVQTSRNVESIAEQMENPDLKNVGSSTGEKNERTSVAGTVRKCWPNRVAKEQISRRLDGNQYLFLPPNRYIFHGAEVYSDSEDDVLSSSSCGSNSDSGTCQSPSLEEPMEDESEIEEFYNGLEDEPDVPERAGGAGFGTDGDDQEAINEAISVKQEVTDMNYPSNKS

IC50 [µM]	Compound
> 100	NC(=O)c1ccccc1Nc1ccc(-c2cn(Cc3ccccc3)nn2)cc1
> 100	NC(=O)c1ccccc1Nc1cccc(-c2cn(CCC3CCCC3)nn2)c1

These molecules were tested against T2, NAD-dependent protein deacetylase sirtuin-2 (Homo sapiens) (UniProt Q8IXJ6). Settings: at 10 µM.
T2 sequence (whole entry): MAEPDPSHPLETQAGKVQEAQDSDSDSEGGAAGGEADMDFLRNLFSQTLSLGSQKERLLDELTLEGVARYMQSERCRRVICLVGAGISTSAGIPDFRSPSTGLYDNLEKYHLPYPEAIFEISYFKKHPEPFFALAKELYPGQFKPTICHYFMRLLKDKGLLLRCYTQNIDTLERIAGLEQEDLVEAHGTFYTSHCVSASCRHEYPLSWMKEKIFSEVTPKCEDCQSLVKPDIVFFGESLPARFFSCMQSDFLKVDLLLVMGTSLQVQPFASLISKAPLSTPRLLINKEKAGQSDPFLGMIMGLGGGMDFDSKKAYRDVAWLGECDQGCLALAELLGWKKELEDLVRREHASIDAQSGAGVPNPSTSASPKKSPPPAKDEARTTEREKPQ
Description: Inhibition of human recombinant SIRT2 using Fluor-de-Lys as substrate at 10 uM incubated for 60 mins prior to substrate addition measured after 60 mins by fluorometric analysis

Compound	inhibition
Cc1ccc(N=[N+]=[N-])cc1C	Active
[N-]=[N+]=NCCc1ccc([N+](=O)[O-])cc1	Active
[N-]=[N+]=NCCc1ccccc1F	Active
[N-]=[N+]=NCCc1ccccc1	Active
COc1ccc(CN=[N+]=[N-])cc1	Active
[N-]=[N+]=NCC(=O)c1ccccc1	Active
[N-]=[N+]=NCCc1ccccc1Cl	Active
[N-]=[N+]=NCCc1ccccc1C(F)(F)F	Active
COc1ccc(N=[N+]=[N-])cc1	Active
[N-]=[N+]=NCCCCCc1ccccc1	Active
[N-]=[N+]=NCC(=O)Nc1ccc(F)cc1	Active
[N-]=[N+]=NCCN1CCOCC1	Active
[N-]=[N+]=NCCc1ccccc1[N+](=O)[O-]	Active
COc1ccc(CCN=[N+]=[N-])cc1	Active
COc1cccc(CCN=[N+]=[N-])c1	Active
[N-]=[N+]=Nc1cccc2ccccc12	Active
[N-]=[N+]=NCC1CCCCC1	Active
[N-]=[N+]=NCCc1ccc(Cl)cc1	Active
[N-]=[N+]=N/C=C/c1ccccc1	Active
[N-]=[N+]=NCCc1ccc2ccccc2c1	Active
[N-]=[N+]=Nc1ccc(F)cc1	Active

Compound	inhibition
N#C/C(=C\c1ccc(-c2cc(Cl)ccc2Cl)o1)C(=O)Nc1cccc2ncccc12	Active
Cc1ccccc1CCN=[N+]=[N-]	Active
C#Cc1cccc(Nc2ccccc2C(N)=O)c1	Active
NC(=O)c1ccccc1Nc1ccc(-c2cn(Cc3ccccc3)nn2)cc1	Active
[N-]=[N+]=NCS(=O)(=O)c1ccccc1	Active
[N-]=[N+]=NCCc1ccc(F)cc1	Active
[N-]=[N+]=NCc1ccccc1	Active
Cc1ncsc1CCN=[N+]=[N-]	Active
[N-]=[N+]=NCCC1CCCC1	Active
[N-]=[N+]=NCC12CC3CC(CC(C3)C1)C2	Active
[N-]=[N+]=NCCC12CC3CC(CC(C3)C1)C2	Active
[N-]=[N+]=NCc1cccc(-c2ccccc2)c1	Active
C#Cc1ccc(Nc2ccccc2C(N)=O)cc1	Active
Cc1cccc(CCN=[N+]=[N-])c1	Active
[N-]=[N+]=NCCC1CCCCC1	Active
[N-]=[N+]=Nc1ccc(N)cc1	Active
[N-]=[N+]=NCCc1cccc(F)c1	Active
COc1ccccc1CCN=[N+]=[N-]	Active
Cc1cccc(C)c1NC(=O)CN=[N+]=[N-]	Active
[N-]=[N+]=NCCc1ccc(C(F)(F)F)cc1	Active
[N-]=[N+]=Nc1ccccc1-c1ccccc1	Active

Compound	inhibition
NC(=O)c1ccccc1Nc1cccc(-c2cn(CCC3CCCC3)nn2)c1	Active
[N-]=[N+]=NCCc1c[nH]c2ccccc12	Active
[N-]=[N+]=NCCc1cccc2ccccc12	Active
[N-]=[N+]=NCc1cccc2ccccc12	Active
Cc1ccc(N=[N+]=[N-])cc1	Active
[N-]=[N+]=NC[S+]([O-])c1ccccc1 (stereo unspecified)	Active
[N-]=[N+]=NCCCc1ccccc1	Active
[N-]=[N+]=Nc1ccc(Br)cc1	Active
Cc1ccc(CCN=[N+]=[N-])cc1	Active
[N-]=[N+]=Nc1ccc(O)cc1	Active
[N-]=[N+]=NCc1ccc2ccccc2c1	Active
[N-]=[N+]=NCCc1cccc(C(F)(F)F)c1	Active
[N-]=[N+]=NCCc1ccccn1	Active
[N-]=[N+]=NCCc1ccsc1	Active
[N-]=[N+]=NCSc1ccccc1	Active
[N-]=[N+]=Nc1ccccc1	Active
[N-]=[N+]=NCCc1cccc(Cl)c1	Active
[N-]=[N+]=Nc1ccc(I)cc1	Active
[N-]=[N+]=NCc1ccc(-c2ccccc2)cc1	Active

Each molecule was assayed against T3, NAD-dependent protein deacetylase sirtuin-3, mitochondrial (Homo sapiens, UniProt Q9NTG7) (assay: Inhibition of human recombinant SIRT3 using Fluor-de-Lys as substrate incubated for 60 mins prior to substrate addition measured after 60 mins by fluorometric analysis). Settings: not given.
T3 sequence (Q9NTG7 whole entry): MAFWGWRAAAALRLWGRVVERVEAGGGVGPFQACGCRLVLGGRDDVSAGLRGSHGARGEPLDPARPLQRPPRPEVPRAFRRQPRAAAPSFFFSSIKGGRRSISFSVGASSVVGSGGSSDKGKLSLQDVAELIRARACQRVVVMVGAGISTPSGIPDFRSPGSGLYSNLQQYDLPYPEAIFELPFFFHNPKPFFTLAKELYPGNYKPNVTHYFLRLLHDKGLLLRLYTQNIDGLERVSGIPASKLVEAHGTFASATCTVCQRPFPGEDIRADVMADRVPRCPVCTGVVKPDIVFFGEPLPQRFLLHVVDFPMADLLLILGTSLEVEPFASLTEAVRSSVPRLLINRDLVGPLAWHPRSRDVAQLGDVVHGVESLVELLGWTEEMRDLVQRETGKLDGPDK

IC50 [µM]	Compound
> 100	NC(=O)c1ccccc1Nc1ccc(-c2cn(Cc3ccccc3)nn2)cc1
> 100	NC(=O)c1ccccc1Nc1cccc(-c2cn(CCC3CCCC3)nn2)c1

Each molecule was assayed against T4, NAD-dependent protein deacetylase sirtuin-1 (Homo sapiens) (UniProt Q96EB6) (assay: Inhibition of human recombinant SIRT1 using Fluor-de-Lys as substrate at 10 uM incubated for 60 mins prior to substrate addition measured after 60 mins by fluorometric analysis). Settings: not given.
T4 sequence (whole entry): T1 sequence (Q96EB6 whole entry)

inhibition	Compound
inactive	NC(=O)c1ccccc1Nc1ccc(-c2cn(Cc3ccccc3)nn2)cc1
inactive	NC(=O)c1ccccc1Nc1cccc(-c2cn(CCC3CCCC3)nn2)c1

Each molecule was assayed against T5, NAD-dependent protein deacetylase sirtuin-2 (Homo sapiens, UniProt Q8IXJ6) (assay: Inhibition of human recombinant SIRT2 using Fluor-de-Lys as substrate incubated for 60 mins prior to substrate addition measured after 60 mins by fluorometric analysis). Settings: not given.
T5 sequence (Q8IXJ6 whole entry): T2 sequence (whole entry)

IC50 [µM]	Compound
6.3	NC(=O)c1ccccc1Nc1ccc(-c2cn(Cc3ccccc3)nn2)cc1
5.3	NC(=O)c1ccccc1Nc1cccc(-c2cn(CCC3CCCC3)nn2)c1

The molecules below were run against T6, NAD-dependent protein deacetylase sirtuin-3, mitochondrial (Homo sapiens) (UniProt Q9NTG7) (assay: Inhibition of human recombinant SIRT3 using Fluor-de-Lys as substrate at 10 uM incubated for 60 mins prior to substrate addition measured after 60 mins by fluorometric analysis). Settings: not given.
T6 sequence (whole entry): T3 sequence (Q9NTG7 whole entry)

inhibition	Compound
inactive	NC(=O)c1ccccc1Nc1ccc(-c2cn(Cc3ccccc3)nn2)cc1
inactive	NC(=O)c1ccccc1Nc1cccc(-c2cn(CCC3CCCC3)nn2)c1

From ChEMBL document CHEMBL3232889, “Identification of novel SIRT2-selective inhibitors using a click chemistry approach” (Bioorg Med Chem Lett, 2014)
